Measured values taken from a melting point compilation (Tetko et al.; mined from patent text by program, amines drawn as free bases though some values may be those of a salt).

| SMILES | melting point [°C] |
| --- | --- |
| C#Cc1cc(F)c(-n2c(=O)cc(C(F)(F)F)n(C)c2=O)c2c1OC(C)C2 (configuration not stated) | 69 to 72.5 |
| CCN(c1c(Cl)c(C(F)(F)F)cc2[nH]c(=O)c(=O)[nH]c12)S(C)(=O)=O | > 300 |
| CS(=O)(=O)c1ccc(-c2cnn(-c3ccc(C(=O)n4cccc4)cc3)c(=O)c2-c2ccc(F)cc2)cc1 | 229 to 231 |
| Cc1cn(-c2cc(NC(=O)n3ccc4cc(Oc5cc(CC(N)=O)ncn5)ccc43)cc(C(F)(F)F)c2)cn1 | 223 to 229 |
| CCCCc1cc(Cn2cnc3c(N)nc4ccccc4c32)no1 | 201 to 203 |
| CN(Cc1cc(C(F)(F)F)cc(C(F)(F)F)c1)C(=O)c1cnc2ccccc2c1-c1ccccc1 | 96 to 97 |
| CCCCOC(=O)C(C#N)C(=O)c1ccc(Cl)cc1[N+](=O)[O-] (configuration not stated) | 56 to 58 |
| CSc1nccc(C)c1NC(=O)CCCCCSc1nc2ccccc2o1 | 122 to 124 |
| CC(C)(C)c1cc(SC2CC(=O)N(c3ccccc3N3C(=O)CC(Sc4cc(C(C)(C)C)c(O)c(C(C)(C)C)c4)C3=O)C2=O)cc(C(C)(C)C)c1O (configuration not stated) | 128 to 133 |
| CC(C)S(=O)c1cnc(Cl)c(Cl)c1 (configuration not stated) | 62 to 64 |
| BrC(Br)c1nc(C(Br)Br)nc(C(Br)Br)n1 | 130 to 131 |
| CCCCc1nc2c(N)nc3ccccc3c2n1CCCCCS(C)(=O)=O | 173 to 175 |
| CCCCn1ccc(-c2ccc(C(=O)N3Cc4cccn4Cc4ccccc43)cc2)n1 | 122 to 123 |
| CCC(O)(CC)CC(=NO)C1(c2ccc(Cl)cc2)CCC1 | 113 to 115 |
| CS(=O)(=O)ON1C(=O)CCC1=O | 148 to 150 |
| CC(=O)N1Cc2c(-c3nc(C4CC4)no3)ncn2-c2ccccc21 | 202 |
| Nc1nc(=O)n(C(=O)Nc2cccc(Cl)c2)cc1F | 250 to 252 |
| COc1cc(N=C2SC(=CC(=O)O)C(=O)N2c2cc(OC)c(OC)c(OC)c2)cc(OC)c1OC | 250 to 252 |
| CCCCC1=Nc2ccccc2SN1 | 153 to 155 |
| CC(=O)CC(=O)NC12CC3CC(CC(C3)C1)C2 | 80 |
| CCOC(=O)c1ccc(C=C(C)C=O)o1 | 83 |
| CCCS(=O)(=O)c1csc2c(=O)n([C@H](C)[C@](O)(Cn3cncn3)c3ccc(F)cc3F)cnc12 | 115 to 122 |

| SMILES | melting point [°C] |
| --- | --- |
| CCN=C(SC)N(C)Cc1ccc(Cl)nc1 | 132 to 133 |
| Fc1ccc(-c2ncn(C3CCCCO3)c2-c2ccc(F)cc2)cc1 (configuration not stated) | 149 to 152 |
| COC(=O)[C@]1(OS(C)(=O)=O)C[C@H](CC(C)C)[C@@H](O)[C@H](OC(=O)c2ccccc2)C1 | 161 to 162 |
| O=C1C(Cl)=C(Nc2ccc(S(=O)(=O)Nc3ccccc3)cc2)C(=O)c2ccccc21 | 220 to 223 |
| O=C(O)CCSc1ccccc1CNC(=O)C1Cc2ccccc2N1S(=O)(=O)c1ccc(-c2cccc(C(F)(F)F)c2)cc1 (configuration not stated) | 85 to 89 |
| N=C(Nc1ccc(F)cc1)Nc1nc(-c2ccccc2)cs1 | 156 to 158 |
| CCOC(=O)C(=O)Nc1coc2ccccc2c1=O | 146 to 148 |
| CCCCCCCCCCCCCCOc1ccc(COC(=O)Oc2ccccc2)cc1 | 34 to 35 |
| CCCCCCCCCCCCCCCCCCC(=O)Nc1ccc(O)cc1 | 138 |
| O=C(O)CCc1conc1-c1ccc(-c2ccccc2)cc1 | 169 to 170 |
| Clc1cccc(N2CCN(CCCOc3ccc4cn[nH]c4c3)CC2)c1Cl | 159 to 161 |
| CCC(C)P(=S)(NP(=S)(C(C)CC)C(C)CC)C(C)CC (configuration not stated) | 110 to 114 |
| O=C1OCC(CC(F)(F)F)N1c1nc(-c2ccc(Br)cc2)cs1 (configuration not stated) | 163 to 165 |
| O=C1C2CCCN2S(=O)(=O)N1CSc1nnnn1-c1ccccc1 (configuration not stated) | 99.5 to 100 |
| COC(=O)[C@H](Cc1ccccc1)NC(=O)CCC(=O)[C@H](Cc1ccccc1)NC(=O)c1ccccc1 | 106 to 109 |
| Cc1ccc2c(c1)NC(NC(C)C)=NS2(=O)=O | 137 to 139 |
| CC(C)N(C(=S)Nc1ccccc1[N+](=O)[O-])C1CCN(CCc2ccccc2)CC1 | 101 |
| Cc1cc(Nc2ccnc(Nc3ccc(S(=O)(=O)N(CCN4CCCC4)C4CCN(C)CC4)cc3)n2)ccc1F | 93 to 103 |
| O=C(O)c1ccc(Br)cc1COc1ccccc1 | 160 to 163 |
| CC1=CC(OC(=O)c2ccc(N(C)C)cc2)C(O)C(C)(C)CC1=O (configuration not stated) | 162 to 163 |
| CCOC(=O)C1=C(COCc2nnnn2CCN2CCN(C(=O)NC)CC2)NC(C)=C(C(=O)OC)C1c1cccc(Cl)c1Cl (configuration not stated) | 95 to 96 |
| Fc1cc(CC2(Cc3ccnc(F)c3)c3cccnc3-c3sccc32)ccn1 | 157 to 159 |

| SMILES | melting point [°C] |
| --- | --- |
| COc1cc2c(cc1N1CCN(CC3=CC4=CSCC4=C3)CC1)OCC2 | 156 to 158 |
| CCc1nc2c(N)nc3ccccc3c2n1CCCC#Cc1cccc(C(F)(F)F)c1 | 178 to 181 |
| CCn1c(COC(N)=O)nc(C(C)C)c1Sc1cc(C#N)cc(C#N)c1 | 174 to 175 |
| COc1cc2nc(Cl)nc(N)c2c(OC)c1OC | 138 to 140 |
| Cc1nn(C)c2nc(-c3ccncc3)nc(N)c12 | 235 to 236 |
| Nc1ccc(C(=S)SCCO)cc1 | 87.5 to 89.5 |
| Fc1ccc2c(C3=CCN(CCC4OCCc5cc(Br)ccc54)CC3)c[nH]c2c1 (configuration not stated) | 184 to 186 |
| O=C(COC1Cc2cccc(O)c2CC1OCC(=O)N1CCOCC1)N1CCOCC1 (configuration not stated) | 68 to 77 |
| Nc1nc(C(=Cc2c(Cl)ccc(Cl)c2Cl)C(=O)O)cs1 | > 210 |
| CN(C)C=NS(=O)(=O)c1ccc(Br)cc1 | 141 to 143 |
| O=C(C1CC=CCC1)C1CCC2C(C=CC3=CCCc4c3n2c2ccncc42)C1 (configuration not stated) | 156 to 158 |
| Cc1cnc(NC(=O)C2c3ccccc3Oc3ccccc32)o1 | 217 to 220 |
| Cc1cccnc1-c1cncc(OC2SCC(O)C(O)C2O)c1 (configuration not stated) | 162 to 175 |
| C(=C\c1nc2ccccc2n1-c1ccccn1)/c1ccco1 | 164 to 165 |
| O=C(c1cc(=O)c2cc3[nH]c(=O)oc3cc2[nH]1)N1CCC(Cc2ccccc2)CC1 | 215 |
| CC12CC(=O)C3C(CCC4CC=CCC43C)C1CCC2=O (configuration not stated) | 188 to 192 |
| CCN(CC)CC1CCCN(CC(=O)N2c3ccccc3C(=O)Nc3cccnc32)C1 (configuration not stated) | 199 to 200 |
| NCCc1ccc(-c2csc(N=C(N)N)n2)o1 | 156 to 158 |
| O=C1NC(=O)C(CCOc2ccccc2)S1 (configuration not stated) | 81 to 83 |
| CCOC(=O)C(C#N)=CC1C=C(OC)C(C(=O)OC)=C(OC)C1 (configuration not stated) | 119 to 121 |
| Oc1ccc(-c2ncc3ncc(-c4ccoc4)cc3n2)cc1 | > 268 |

More lines, now with the values ahead:

| melting point [°C] | SMILES |
| --- | --- |
| 164 | Cc1cccc(NC(=O)NC(CC(=O)N(CC(=O)OC(C)(C)C)c2ccccc2)c2ccccc2)c1 (racemic) |
| 76 to 78 | CCN(C(=O)c1ccccc1[Si](C)(C)C)C(OC)C(C)(C)C (configuration not stated) |
| 192 | CC(C)(C)OC(=O)Nc1nc2cc(NC(=O)C(=O)N3CCC(Cc4ccccc4)CC3)ccc2[nH]1 |
| 184 to 187 | CCCc1c(C(=O)O)c(=O)cc(-c2ccc(Cl)cc2)n1C |
| 125 to 126 | CCOC(=O)CCn1c(-c2ccc(F)cc2)cc2ccccc2c1=O |
| 116 to 120 | CN1C(=O)[C@@H](NC(=O)OC(C)(C)C)CSc2ccccc21 |
| 102 to 103 | COC(=O)C(C)(C)Cc1c(SC(C)(C)C)c2cc(OC)ccc2n1Cc1ccc(Cl)cc1 |
| 104 to 106 | OC(Cc1ccc(Cl)cc1)Cn1cncn1 (configuration not stated) |
| 155 to 158 | COc1ccc(-n2c(=O)c3c(N4CCN(C)CC4)cc(Cl)cc3n(Cc3ccccc3)c2=O)cc1 |
| 217 to 218 | COc1ccc2nc(-c3cc(C(F)(F)F)nn3-c3ccc(S(C)(=O)=O)cc3)sc2c1 |
| 234 to 237 | CCOC(=O)c1cn(Cc2csnn2)c2cc(F)c(F)cc2c1=O |
| 97 to 98 | CCCc1cc(C=Cc2ccc3ccccc3n2)cc(OCC(=O)O)c1 |
| 207 | COc1ccc(NC(=O)c2cc(O[Si](C)(C)C(C)(C)C)ccc2NC(=O)c2ccc(C(C)(C)C)cc2)cc1 |
| 58 to 59 | COc1ccc(CSc2ccc3c(c2)C=CC(C)(C)O3)cc1 |
| 102 | Cc1ccc(S(=O)(=O)N(C)c2ccc(Cl)cc2N)cc1 |
| 125 to 126 | CCCCCN1C(=O)C(NC(=O)c2ccc(Cl)c(Cl)c2)c2ccccc21 (configuration not stated) |

| melting point [°C] | SMILES |
| --- | --- |
| 147 to 149 | O=C1NC(=O)C(Cc2ccc(C(=O)/C=C/c3ccccc3)cc2)S1 (configuration not stated) |
| 78 to 81 | O=C(O)C(O)CCCCCc1ccc(Cl)cc1 (configuration not stated) |
| 142 to 148 | COc1cc(C(=O)O)nc(-c2ccc(N(C)C)cc2)c1 |
| 360 to 364 | COc1ccc(Cn2c3c(c4cc(OC)c(OC)cc4c2=O)C(=O)c2cc4c(cc2-3)OCO4)cc1 |
| 70 | CCC1CC(=O)N(Cc2cccc(NC(C)=O)c2)N=C1c1ccc(OC)c(OC2CCCC2)c1 (configuration not stated) |
| 135 to 140 | COc1ccc(-c2ncccc2C=C(Cc2cc3c(cc2OC)OCO3)C(=O)O)c(OCc2ccccc2C(=O)O)c1 |
| 242 to 246 | CNC(=O)Cc1c(C(=O)c2ccccc2)[nH]c2cc(Cl)ccc12 |
| 128 | Cc1ccc(NC(=O)Oc2ccc3c(c2)NCCC3)cc1 |
| 199 to 200 | Cc1ccc(C(=S)c2c(C)cc(Cc3ccc(N)cc3F)n2C)cc1 |
| 84 to 87 | CCCc1c(OCCCCCc2c(Cl)c(Cl)c(Cl)c(OC)c2OC)ccc(C(=O)OC)c1O |
| 217 to 220 | CS(=O)(=O)CC(=O)Nc1c(C(=O)c2ccccc2)[nH]c2cc(Cl)ccc12 |
| 118 to 120 | O=C(c1cccs1)c1cnn2c(-c3cccc(NCCc4ccccc4)c3)ccnc12 |
| 104 to 109 | CCN1C(=O)C(C)(C)C(=O)N(C)c2cc(CN(CCn3ccc4oc(C)cc4c3=O)Cc3nc(C)n4ccccc34)ccc21 |
| 130 to 132 | CCOC(=O)NC(=O)CN(C)C(=O)c1c(F)ccc2c(C(F)(F)F)c(OC)ccc12 |
| 103 to 104 | COc1ccc(-c2ccc(Br)c3ccsc23)cc1 |
| 212 to 214 | COc1ccc(C(=O)Nc2ccc(F)c(F)c2)cc1NS(=O)(=O)c1cccc(N)c1 |
